Reference: patent US11702418B2, “SOS1 inhibitors” (priority 2019, dated 2023)
Counter-ions that a name gives are not always drawn. Like-named read-outs stand apart in the source and are kept apart here.

Tests used:
[1] = target: recombinant human SOS1 polypeptide (amino acids 560-1049) (Homo sapiens (Human), UniProt Q07889); assay: biochemical; type: binding; details: read-out: Ki, Inhibition of Labeled Tracer Binding to SOS1
Protocol: The ability of a compound of Formula (I) to bind to SOS1 was measured using a HTRF displacement assay. […] After a 1-hour incubation at room temperature, the HTRF signal was measured using Clairostar plate reader (BMG Labtech) according to the manufacturer's instructions. Excitation filter EX-TR was used, and emission 1 was detected at 650-610 nm and emission 2 detected at 620-610 nm. The HTRF ratio was calculated using the formula: [emission 1/emission 2]*10000.
Background signals were calculated from well with a 10 μM inhibitor, known to inhibit 100% at that concentration. The background subtracted signals were converted to % binding relative to DMSO controls. Data were analyzed using XLFIT software (IDBS) using a Morrison equation for competitive binding and Ki's were generated compound of Formula (I).

pERK in MKN1 cells = assay: cells; type: cell-based
[2] = HTRF displacement, Cy5 labelled tracer, Morrison equation for competitive binding
[3] = Homo sapiens, MKN-1, pERK inhibition, In-Cell Western, MKN1 or H358 cells (Table 24 does not say which), 0.5-1 hour incubation, read-out: IC50
[4] = pERK inhibition, In-Cell Western, MKN1 or H358 cells (Table 24 does not say which), 0.5-1 hour incubation, read-out: IC50

Chain of recombinant human SOS1 polypeptide (amino acids 560-1049) (Q07889 560-1049): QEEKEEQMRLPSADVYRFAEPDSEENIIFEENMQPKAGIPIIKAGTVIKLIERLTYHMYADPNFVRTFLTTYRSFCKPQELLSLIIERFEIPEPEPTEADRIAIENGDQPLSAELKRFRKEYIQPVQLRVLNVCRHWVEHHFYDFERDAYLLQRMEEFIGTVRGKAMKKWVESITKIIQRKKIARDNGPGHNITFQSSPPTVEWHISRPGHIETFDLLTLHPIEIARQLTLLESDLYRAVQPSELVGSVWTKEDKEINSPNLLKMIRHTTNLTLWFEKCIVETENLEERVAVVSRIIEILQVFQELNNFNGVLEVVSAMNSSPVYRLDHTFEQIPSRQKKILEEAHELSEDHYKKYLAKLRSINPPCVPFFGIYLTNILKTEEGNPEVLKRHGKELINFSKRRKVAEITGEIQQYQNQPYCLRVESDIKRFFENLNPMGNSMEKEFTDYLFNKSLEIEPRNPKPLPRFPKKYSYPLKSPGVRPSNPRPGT

Cc1c([C@@H](C)Nc2nnc(C)c3ccc(-n4cc5c(n4)CNC5)cc23)cccc1C(F)(F)F [Example 10-16, (R)-7-(5,6-dihydropyrrolo[3,4-c]pyrazol-2(4H)-yl)-4-methyl-N-(1-(2-methyl-3-(trifluoromethyl)phenyl)ethyl)phthalazin-1-amine]
Ki [1, 2]: 7.75 nM
IC50 (pERK in MKN1 cells; [3]): 325 nM

Cc1c([C@@H](C)Nc2nnc(C)c3ccc(N4CCC5(CCCN5)CC4)cc23)cccc1C(F)(F)F [Example 10-18, (R)-4-methyl-N-(1-(2-methyl-3-(trifluoromethyl)phenyl)ethyl)-7-(1,8-diazaspiro[4.5]decan-8-yl)phthalazin-1-amine]
Ki [1, 2]: 1.41 nM
IC50 (pERK in MKN1 cells; [4]): 291 nM

Cc1c([C@@H](C)Nc2nnc(C)c3ccc(N4CCC5(CCCN5C)CC4)cc23)cccc1C(F)(F)F [Example 10-19, (R)-4-methyl-N-(1-(2-methyl-3-(trifluoromethyl)phenyl)ethyl)-7-(1-methyl-1,8-diazaspiro[4.5]decan-8-yl)phthalazin-1-amine]
Ki [1, 2]: 0.28 nM
IC50 (pERK in MKN1 cells; [3]): 69 nM

Cc1c([C@@H](C)Nc2nnc(C)c3ccc(N4CCNCC(F)C4)cc23)cccc1C(F)(F)F (stereo partly drawn) [Example 10-22, 7-(6-fluoro-1,4-diazepan-1-yl)-4-methyl-N-((R)-1-(2-methyl-3-(trifluoromethyl)phenyl)ethyl)phthalazin-1-amine]
Ki [1, 2]: 0.45 nM
IC50 (pERK in MKN1 cells; [3]): 38 nM

Cc1c([C@@H](C)Nc2nnc(C)c3ccc(N4CCS(=O)(=O)CC4)cc23)cccc1C(F)(F)F [Example 10-23, (R)-4-(1-methyl-4-((1-(2-methyl-3-(trifluoromethyl)phenyl)ethyl)amino)phthalazin-6-yl)thiomorpholine 1,1-dioxide]
Ki [1, 2]: 0.42 nM
IC50 (pERK in MKN1 cells; [3]): 19 nM

Cc1c([C@@H](C)Nc2nnc(C)c3ccc(OC[C@@H]4CCCN4C)cc23)cccc1C(F)(F)F [Example 10-24, 4-methyl-N-((R)-1-(2-methyl-3-(trifluoromethyl)phenyl)ethyl)-7-(((S)-1-methylpyrrolidin-2-yl)methoxy)phthalazin-1-amine hydrochloride salt]
Ki [1]: 1.34 nM
IC50 (pERK in MKN1 cells; Homo sapiens, MKN-1): 69 nM

Cc1c([C@@H](C)Nc2nnc(C)c3ccc(OC[C@H]4CCCN4C)cc23)cccc1C(F)(F)F [Example 10-25, 4-methyl-N-((R)-1-(2-methyl-3-(trifluoromethyl)phenyl)ethyl)-7-(((R)-1-methylpyrrolidin-2-yl)methoxy)phthalazin-1-amine hydrochloride salt]
Ki [1]: 1.47 nM
IC50 (pERK in MKN1 cells; Homo sapiens, MKN-1): 103 nM

Cc1c([C@@H](C)Nc2nnc(C)c3ccc(N4CC[C@@H](N(C)C)C4)cc23)cccc1C(F)(F)F [Example 10-26, 7-((R)-3-(dimethylamino)pyrrolidin-1-yl)-4-methyl-N-((R)-1-(2-methyl-3-(trifluoromethyl)phenyl)ethyl)phthalazin-1-amine hydrochloride salt]
Ki [1]: 0.47 nM
IC50 (pERK in MKN1 cells; Homo sapiens, MKN-1): 164 nM

Cc1c([C@@H](C)Nc2nnc(C)c3ccc(N4C5CCC4CN(C)C5)cc23)cccc1C(F)(F)F [Example 10-28, 4-methyl-N-((R)-1-(2-methyl-3-(trifluoromethyl)phenyl)ethyl)-7-(3-methyl-3,8-diazabicyclo[3.2.1]octan-8-yl)phthalazin-1-amine hydrochloride salt]
Ki [1]: 0.45 nM
IC50 (pERK in MKN1 cells; Homo sapiens, MKN-1): 161 nM

Cc1c([C@@H](C)Nc2nnc(C)c3ccc(N4CC5CCC(C4)N5C)cc23)cccc1C(F)(F)F [Example 10-29, 4-methyl-N-((R)-1-(2-methyl-3-(trifluoromethyl)phenyl)ethyl)-7-(8-methyl-3,8-diazabicyclo[3.2.1]octan-3-yl)phthalazin-1-amine hydrochloride salt]
Ki [1]: 0.39 nM
IC50 (pERK in MKN1 cells; Homo sapiens, MKN-1): 70 nM

Cc1c([C@@H](C)Nc2nnc(C)c3ccc(N4CCC(N5CCC5)CC4)cc23)cccc1C(F)(F)F [Example 10-30, (R)-7-(4-(azetidin-1-yl)piperidin-1-yl)-4-methyl-N-(1-(2-methyl-3-(trifluoromethyl)phenyl)ethyl)phthalazin-1-amine hydrochloride salt]
Ki [1]: 0.41 nM
IC50 (pERK in MKN1 cells; Homo sapiens, MKN-1): 48 nM

Cc1c([C@@H](C)Nc2nnc(C)c3ccc(N4C[C@@H]5CC[C@H]4CN5C)cc23)cccc1C(F)(F)F [Example 10-31, 4-methyl-N-((R)-1-(2-methyl-3-(trifluoromethyl)phenyl)ethyl)-7-((1S,4S)-5-methyl-2,5-diazabicyclo[2.2.2]octan-2-yl)phthalazin-1-amine]
Ki [1, 2]: 0.35 nM
IC50 (pERK in MKN1 cells; [3]): 3580 nM

Cc1c([C@@H](C)Nc2nnc(C)c3ccc(N4C[C@H]5CC[C@@H]4CN5C)cc23)cccc1C(F)(F)F [Example 10-32, 4-methyl-N-((R)-1-(2-methyl-3-(trifluoromethyl)phenyl)ethyl)-7-((1R,4R)-5-methyl-2,5-diazabicyclo[2.2.2]octan-2-yl)phthalazin-1-amine]
Ki [1, 2]: 0.2 nM
IC50 (pERK in MKN1 cells; [3]): 28 nM

Cc1c([C@@H](C)Nc2nnc(C)c3ccc(N4CCN(C)C5(CC5)C4)cc23)cccc1C(F)(F)F [Example 10-33, (R)-4-methyl-N-(1-(2-methyl-3-(trifluoromethyl)phenyl)ethyl)-7-(4-methyl-4,7-diazaspiro[2.5]octan-7-yl)phthalazin-1-amine]
Ki [1, 2]: 0.69 nM
IC50 (pERK in MKN1 cells; [3]): 275 nM

Cc1c([C@@H](C)Nc2nnc(C)c3ccc(N4CCNC5(CC5)C4)cc23)cccc1C(F)(F)F [Example 10-34, (R)-4-methyl-N-(1-(2-methyl-3-(trifluoromethyl)phenyl)ethyl)-7-(4,7-diazaspiro[2.5]octan-7-yl)phthalazin-1-amine]
Ki [1, 2]: 0.56 nM
IC50 (pERK in MKN1 cells; [3]): 136 nM

Cc1c([C@@H](C)Nc2nnc(C)c3ccc(N4CCC5(CCCN5)CC4)cc23)cccc1C(F)(F)F [Example 10-35, (R)-4-methyl-N-(1-(2-methyl-3-(trifluoromethyl)phenyl)ethyl)-7-(1,8-diazaspiro[4.5]decan-8-yl)phthalazin-1-amine]
Ki [1, 2]: 0.31 nM
IC50 (pERK in MKN1 cells; [4]): 1000 nM

Cc1c([C@@H](C)Nc2nnc(C)c3ccc(N4CCC5(CCNC5)CC4)cc23)cccc1C(F)(F)F [Example 10-36, (R)-4-methyl-N-(1-(2-methyl-3-(trifluoromethyl)phenyl)ethyl)-7-(2,8-diazaspiro[4.5]decan-8-yl)phthalazin-1-amine hydrochloride salt]
Ki [1]: 0.23 nM
IC50 (pERK in MKN1 cells; Homo sapiens, MKN-1): 79 nM

Cc1c([C@@H](C)Nc2nnc(C)c3ccc(N4CCC5(CCN(C)C5)CC4)cc23)cccc1C(F)(F)F [Example 10-37, (R)-4-methyl-N-(1-(2-methyl-3-(trifluoromethyl)phenyl)ethyl)-7-(2-methyl-2,8-diazaspiro[4.5]decan-8-yl)phthalazin-1-amine hydrochloride salt]
Ki [1]: 0.24 nM
IC50 (pERK in MKN1 cells; Homo sapiens, MKN-1): 55 nM

Cc1c([C@@H](C)Nc2nnc(C)c3ccc(N4CCC5(CCNC5=O)CC4)cc23)cccc1C(F)(F)F [Example 10-38, (R)-8-(1-methyl-4-((1-(2-methyl-3-(trifluoromethyl)phenyl)ethyl)amino)phthalazin-6-yl)-2,8-diazaspiro[4.5]decan-1-one]
Ki [1, 2]: 0.71 nM
IC50 (pERK in MKN1 cells; [3]): 29 nM

Cc1c([C@@H](C)Nc2nnc(C)c3ccc(N4CCC5(CCNCC5)C4=O)cc23)cccc1C(F)(F)F [Example 10-39, (R)-2-(1-methyl-4-((1-(2-methyl-3-(trifluoromethyl)phenyl)ethyl)amino)phthalazin-6-yl)-2,8-diazaspiro[4.5]decan-1-one hydrochloride salt]
Ki [1]: 1.49 nM
IC50 (pERK in MKN1 cells; Homo sapiens, MKN-1): 110 nM

Cc1c([C@@H](C)Nc2nnc(C)c3ccc(N4CCC5(CCN(C)C5=O)CC4)cc23)cccc1C(F)(F)F [Example 10-40, (R)-2-methyl-8-(1-methyl-4-((1-(2-methyl-3-(trifluoromethyl)phenyl)ethyl)amino)phthalazin-6-yl)-2,8-diazaspiro[4.5]decan-1-one]
Ki [1, 2]: 0.43 nM
IC50 (pERK in MKN1 cells; [3]): 11 nM

Cc1c([C@@H](C)Nc2nnc(C)c3ccc(N4CC5(CCN(C)C5)C4)cc23)cccc1C(F)(F)F [Example 10-41, (R)-4-methyl-N-(1-(2-methyl-3-(trifluoromethyl)phenyl)ethyl)-7-(6-methyl-2,6-diazaspiro[3.4]octan-2-yl)phthalazin-1-amine hydrochloride salt]
Ki [1]: 0.52 nM
IC50 (pERK in MKN1 cells; Homo sapiens, MKN-1): 30 nM

Cc1c([C@@H](C)Nc2nnc(C)c3ccc(N4CCC(C)(N(C)C)CC4)cc23)cccc1C(F)(F)F [Example 10-42, (R)-7-(4-(dimethylamino)-4-methylpiperidin-1-yl)-4-methyl-N-(1-(2-methyl-3-(trifluoromethyl)phenyl)ethyl)phthalazin-1-amine hydrochloride salt]
Ki [1]: 0.31 nM
IC50 (pERK in MKN1 cells; Homo sapiens, MKN-1): 43 nM

Cc1nnc(N[C@H](C)c2cccc3ccccc23)c2cc(N3CCNCC3)ccc12 [Example 10-43, (R)-4-methyl-N-(1-(naphthalen-1-yl)ethyl)-7-(piperazin-1-yl)phthalazin-1-amine formate salt]
Ki [1]: 1.13 nM
IC50 (pERK in MKN1 cells; Homo sapiens, MKN-1): 138 nM

Cc1c(C(F)F)cccc1[C@@H](C)Nc1nnc(C)c2ccc(N3CCC(N4CCC4)CC3)cc12 [Example 10-44, (R)-7-(4-(azetidin-1-yl)piperidin-1-yl)-N-(1-(3-(difluoromethyl)-2-methylphenyl)ethyl)-4-methylphthalazin-1-amine hydrochloride salt]
Ki [1]: 0.51 nM
IC50 (pERK in MKN1 cells; Homo sapiens, MKN-1): 53 nM

Cc1c([C@@H](C)Nc2nnc(C)c3ccc(N4CC(N(C)C)C4)cc23)cccc1C(F)(F)F [Example 10-46, (R)-7-(3-(dimethylamino)azetidin-1-yl)-4-methyl-N-(1-(2-methyl-3-(trifluoromethyl)phenyl)ethyl)phthalazin-1-amine formate salt]
Ki [1]: 1.13 nM
IC50 (pERK in MKN1 cells; Homo sapiens, MKN-1): 157 nM

Cc1c([C@@H](C)Nc2nnc(C)c3ccc(N4CC(C)(O)C4)cc23)cccc1C(F)(F)F [Example 10-47, (R)-3-methyl-1-(1-methyl-4-((1-(2-methyl-3-(trifluoromethyl)phenyl)ethyl)amino)phthalazin-6-yl)azetidin-3-ol]
Ki [1, 2]: 1.19 nM
IC50 (pERK in MKN1 cells; [3]): 55 nM
